The text below walks through data of ChEMBL document CHEMBL1201862, “PubChem BioAssay data set” (2004).

The structures appear in SMILES notation. The source made the active and inactive calls. Where only a bound is given, the exact number is not on record here.

Assay [1] has as its system HEK293. Nature of the assay: HEK293T cell viability loss, resazurin readout – resazurin fluorescence, cytotoxicity control for NF-kB activator project, SAR follow-up (AID 493251). It counts as functional, cell-based. Conditions: Homo sapiens.
The subject of a further assay is Jurkat. Nature of the assay: SAR Analysis of small molecule inhibitors of T-cell specific antigen receptor-induced NF-kB activation in a Jurkat cell line using a luminescence assay - Set 2. [Related pubchem assays (depositor defined):AID435003, AID435012, AID465]. It counts as functional, cell-based. The following applies: Homo sapiens.
Assay [2] has as its system HEK293. Put plainly: SAR Analysis of small molecule inhibitors of T-cell specific antigen receptor-induced NF-kB activation in a HEK-293T cell line using a luminescence assay - Set 2. [Related pubchem assays (depositor defined):AID435003, AID435012, AID489026]. The following applies: Homo sapiens. It counts as functional, cell-based.
The target of assay [3] is T1, Beta-adrenergic receptor kinase 1 (Homo sapiens, UniProt P25098). Put plainly: aptamer displacement from bead-bound GRK2 – biochemical, cherry pick 1, bead flow cytometry, dose response (AID 504500).
T1 sequence (P25098 whole entry): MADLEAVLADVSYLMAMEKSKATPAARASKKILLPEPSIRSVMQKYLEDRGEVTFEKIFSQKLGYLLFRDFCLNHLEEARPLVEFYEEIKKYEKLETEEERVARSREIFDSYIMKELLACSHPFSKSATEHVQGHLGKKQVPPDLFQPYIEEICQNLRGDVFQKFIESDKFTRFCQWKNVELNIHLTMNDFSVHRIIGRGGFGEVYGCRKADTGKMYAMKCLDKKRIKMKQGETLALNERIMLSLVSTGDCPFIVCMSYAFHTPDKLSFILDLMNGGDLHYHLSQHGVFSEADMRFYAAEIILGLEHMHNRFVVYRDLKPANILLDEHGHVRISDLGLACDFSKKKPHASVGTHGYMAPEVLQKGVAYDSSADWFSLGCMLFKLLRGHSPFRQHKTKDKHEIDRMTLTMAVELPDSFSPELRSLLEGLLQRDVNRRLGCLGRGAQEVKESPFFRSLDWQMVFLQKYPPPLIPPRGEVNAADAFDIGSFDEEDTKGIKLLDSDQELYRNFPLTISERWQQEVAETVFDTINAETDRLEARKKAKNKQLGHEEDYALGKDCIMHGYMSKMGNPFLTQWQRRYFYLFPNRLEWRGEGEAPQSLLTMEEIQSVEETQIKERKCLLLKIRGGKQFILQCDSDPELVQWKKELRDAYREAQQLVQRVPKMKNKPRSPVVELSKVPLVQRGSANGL
Assay [4] has as its target T1, Beta-adrenergic receptor kinase 1. Put plainly: blockers of aptamer binding to GRK2 – biochemical, flow cytometry beads, FAM-aptamer, powder set 1, dose response (AID 588720). (In flow cytometry, cells or beads pass a laser one at a time.)
Assay [5] deals with T2, Small ubiquitin-related modifier 1 (Homo sapiens, UniProt P63165). Put plainly: SUMO1 protein interaction blockers, potency – biochemical, fluorescence polarization, uHTS hits, dose response (AID 624382). It counts as functional. Conditions: read-out: IC50_Mean. Background: Fluorescence polarisation rises when a labelled molecule tumbles more slowly, as on binding a larger partner.
T2 sequence (P63165 whole entry): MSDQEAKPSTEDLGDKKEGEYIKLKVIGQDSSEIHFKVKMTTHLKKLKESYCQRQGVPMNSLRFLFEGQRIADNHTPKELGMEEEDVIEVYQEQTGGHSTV

Assay [6] deals with T2, Small ubiquitin-related modifier 1. Nature of the assay: SUMO1 protein-protein binding blockers, potency – biochemical, FRET, dose response (AID 624383). Format: functional. The following applies: read-out: IC50_Mean.
A further assay deals with Nonstructural protein 1 (Influenza A virus, UniProt Q194T2). Format: functional, Influenza A virus (A/California/07/2009(H1N1)).
Chain of Nonstructural protein 1 (Q194T2 whole entry): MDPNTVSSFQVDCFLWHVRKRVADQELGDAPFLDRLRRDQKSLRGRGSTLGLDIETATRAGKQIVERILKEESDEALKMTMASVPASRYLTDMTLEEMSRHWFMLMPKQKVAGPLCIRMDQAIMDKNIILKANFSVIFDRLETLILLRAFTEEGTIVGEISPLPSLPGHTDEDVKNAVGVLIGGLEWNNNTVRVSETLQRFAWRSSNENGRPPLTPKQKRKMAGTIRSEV
Assay [7] concerns the target T3, Replicative DNA helicase DnaB (Mycobacterium tuberculosis, UniProt P9WMR3).
T3 sequence (P9WMR3 whole entry): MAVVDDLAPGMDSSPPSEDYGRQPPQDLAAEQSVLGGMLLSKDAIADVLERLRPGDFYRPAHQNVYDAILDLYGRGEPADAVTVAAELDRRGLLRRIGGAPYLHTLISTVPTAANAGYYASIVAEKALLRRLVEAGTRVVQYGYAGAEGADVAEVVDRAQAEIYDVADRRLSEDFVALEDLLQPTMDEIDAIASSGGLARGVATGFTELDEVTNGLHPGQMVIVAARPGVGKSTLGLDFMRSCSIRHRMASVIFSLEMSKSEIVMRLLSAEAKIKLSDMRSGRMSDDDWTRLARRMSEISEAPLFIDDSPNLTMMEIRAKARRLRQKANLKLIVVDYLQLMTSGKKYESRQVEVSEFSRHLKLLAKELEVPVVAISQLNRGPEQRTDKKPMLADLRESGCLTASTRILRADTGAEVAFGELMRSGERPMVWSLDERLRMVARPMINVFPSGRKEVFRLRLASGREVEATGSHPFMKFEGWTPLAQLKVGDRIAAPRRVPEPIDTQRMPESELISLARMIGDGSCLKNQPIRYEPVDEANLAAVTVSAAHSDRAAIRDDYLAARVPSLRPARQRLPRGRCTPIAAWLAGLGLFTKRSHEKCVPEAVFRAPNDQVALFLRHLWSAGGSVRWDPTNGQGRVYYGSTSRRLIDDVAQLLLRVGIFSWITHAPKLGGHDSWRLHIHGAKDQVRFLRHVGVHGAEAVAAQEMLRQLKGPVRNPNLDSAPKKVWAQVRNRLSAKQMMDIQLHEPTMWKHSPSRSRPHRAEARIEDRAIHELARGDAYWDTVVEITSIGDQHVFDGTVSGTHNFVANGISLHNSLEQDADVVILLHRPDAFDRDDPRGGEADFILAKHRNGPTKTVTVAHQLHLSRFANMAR
Nature of the assay: DnaB intein splicing inhibitors, dose response, biochemical, cell-free fluorescence (AID 449749). Format: functional.

The subject of another assay is Vero. Put plainly: Vero E6 cell cytotoxicity, dose response, cytotoxicity control (AID 540298). It counts as functional. Conditions: Chlorocebus sabaeus.
Another assay addresses T4, Protein RecA (Mycobacterium tuberculosis, UniProt P9WHJ3).
T4 sequence (P9WHJ3 whole entry): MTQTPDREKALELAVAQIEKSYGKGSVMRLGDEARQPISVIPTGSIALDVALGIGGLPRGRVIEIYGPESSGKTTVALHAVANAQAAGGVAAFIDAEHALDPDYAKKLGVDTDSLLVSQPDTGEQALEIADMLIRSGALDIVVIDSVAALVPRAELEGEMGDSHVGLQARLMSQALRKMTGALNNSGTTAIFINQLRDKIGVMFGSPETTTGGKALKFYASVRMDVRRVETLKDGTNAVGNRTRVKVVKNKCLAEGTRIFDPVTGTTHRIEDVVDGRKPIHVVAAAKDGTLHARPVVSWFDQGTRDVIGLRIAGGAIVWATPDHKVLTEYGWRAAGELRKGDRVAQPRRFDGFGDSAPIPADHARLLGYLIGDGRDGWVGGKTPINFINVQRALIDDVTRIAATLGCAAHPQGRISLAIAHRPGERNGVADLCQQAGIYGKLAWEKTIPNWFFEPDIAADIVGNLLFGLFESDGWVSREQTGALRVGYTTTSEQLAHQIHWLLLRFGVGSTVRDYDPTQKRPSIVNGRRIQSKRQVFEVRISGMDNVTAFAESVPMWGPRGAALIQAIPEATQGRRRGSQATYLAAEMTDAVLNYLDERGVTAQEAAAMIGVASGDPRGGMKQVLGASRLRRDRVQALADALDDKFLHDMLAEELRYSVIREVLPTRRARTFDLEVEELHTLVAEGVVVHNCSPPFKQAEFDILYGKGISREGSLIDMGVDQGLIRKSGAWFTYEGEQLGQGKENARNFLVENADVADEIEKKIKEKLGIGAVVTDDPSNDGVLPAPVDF
Nature of the assay: Fluorescence Cell-Free Homogeneous Dose Retest to Identify Inhibitors of RecA-Intein Splicing Activity. [Related pubchem assays (depositor defined):AID2097, AID2223, AID489010, AID492950]. Format: functional.

For assay [8], the system named is MDCK. Nature of the assay: MDCK cell cytotoxicity, dose response, cytotoxicity control (AID 540296). Format: functional. Conditions: Canis lupus familiaris.
Assay [9] relates to MDCK. Nature of the assay: antiviral activity against H1N1 influenza, dose response, cell-based, strain KY136 (AID 540257). Format: functional. Conditions: Canis lupus familiaris.
Assay [10] relates to Candida albicans. Put plainly: fluconazole-resistant Candida strain growth inhibitors – CaCi-8 strain, dry powder, set 4, dose response (AID 488950). It counts as functional, organism-based.
For assay [11], the system named is Candida albicans. Put plainly: Candida growth reduction in fluconazole presence – CaCi-2 strain, Alamar Blue, dry powder, set 2, antifungal resistance reversal project, dose response (AID 488930). Format: functional, organism-based.
In assay [12] the test system is Candida albicans. Nature of the assay: C. albicans growth inhibition with fluconazole – CaCi-2 strain, Alamar Blue, dry powder, set 4, dose response (AID 488943). It counts as functional, organism-based.
The test system of assay [13] is Candida albicans. Put plainly: resistant Candida growth with fluconazole co-treatment – CaCi-8 strain, Alamar Blue, dry powder, set 2, dose response (AID 488909). Format: functional, organism-based.
Assay [14] in a line: luciferase reporter signal suppression in cells – H4 neuroglioma cells, luminescence, dose response (AID 1990). Format: functional, cell-based. On the technique in general: Reporter assays use an easily measured gene product as a stand-in for the process of interest.
For assay [15], the system named is BJ. Nature of the assay: BJ-TERT fibroblast viability loss – cell-based, RAS-independent, luminescence, dose response (AID 1933). It counts as functional. The following applies: Homo sapiens.
A short description of assay [16]: Luminescence Cell-Based Dose Response HTS to Identify Inhibitors of 5'UTR Stem-Loop Driven Prion Protein mRNA Translation in H4 Neuroglioblastoma Cells. [Related pubchem assays: 1827 (Project Summary), 1813 (Primary HTS)]. Format: functional.
The target of assay [17] is T5, Heat shock factor protein 1 (Mus musculus, UniProt P38532).
T5 sequence (P38532 whole entry): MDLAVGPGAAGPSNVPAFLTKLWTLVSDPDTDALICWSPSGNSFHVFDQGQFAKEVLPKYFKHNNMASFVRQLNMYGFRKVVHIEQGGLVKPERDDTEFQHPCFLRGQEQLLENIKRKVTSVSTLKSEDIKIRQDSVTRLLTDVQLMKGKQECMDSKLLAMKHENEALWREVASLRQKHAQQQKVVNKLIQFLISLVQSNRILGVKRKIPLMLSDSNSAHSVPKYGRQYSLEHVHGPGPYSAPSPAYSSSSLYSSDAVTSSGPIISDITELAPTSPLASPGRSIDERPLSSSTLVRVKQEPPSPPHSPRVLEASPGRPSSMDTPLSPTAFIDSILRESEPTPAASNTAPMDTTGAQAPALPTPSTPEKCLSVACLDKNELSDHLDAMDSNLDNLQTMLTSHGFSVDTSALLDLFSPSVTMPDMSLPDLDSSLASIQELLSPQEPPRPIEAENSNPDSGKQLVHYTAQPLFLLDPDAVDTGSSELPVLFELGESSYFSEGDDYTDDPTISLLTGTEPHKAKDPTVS
Put plainly: decrease of HSF1-responsive luciferase luminescence – cell-based, NIH3T3, dose retest, confirmation (AID 2382).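 Also: NIH3T3 fibroblasts with HSF1-driven luciferase reporter stressed by proteasome inhibitor MG132; luminescence from HSF1-driven luciferase expression after 8 hours of MG132 stress.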 Format: functional.

The nature of assay [18]: alpha-synuclein stem-loop luciferase translation blockers – H4 neuroglioma cells, luminescence, confirmation (AID 1988). It counts as functional, cell-based.
Assay [19] has as its system BJ. Put plainly: cells. Format: functional, cell-based. Conditions: Homo sapiens.
Assay [20] deals with BJ. Put plainly: BJ-TERT-LT-ST fibroblast viability loss – cell-based, RAS-independent, luminescence, dose response (AID 1935).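 Also: BJ fibroblasts immortalized with TERT plus LT and ST oncogenes.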 It counts as functional. Conditions: Homo sapiens.
Assay [21] can be described thus: DRD fibroblast viability loss – cell-based, non-viral oncogenic, luminescence, dose response (AID 1934). It counts as functional. Conditions: Homo sapiens.
Assay [22] deals with BJ. Nature of the assay: growth inhibition of engineered Ras-driven BJ cells – cell-based, alamar blue fluorescence, cherrypicked samples, dose response (AID 2631).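 Also: confirmatory dose-response assay in RAS-dependent BJ fibroblasts engineered with TERT, LT and ST, with cytotoxicity read by fluorescence.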 It counts as functional. The following applies: Homo sapiens.

For the compound `COc1ccccc1C(NC(C)=O)c1ccc2cccnc2c1O` (stereo not drawn), the results for the IC50 in the assay with HEK293 [1], in the assay with Jurkat and in the assay on HEK293 [2] were 7.73 µM (active), 7.09 µM (active) and 7.96 µM (active), respectively.

Usually EC50 stands for the concentration that produces a half-maximal response. `CC(CS(=O)(=O)c1ccc2c(c1)NC(=O)CS2)C(=O)NCc1ccccc1Cl` (stereo not drawn): the values for the EC50 in assay [3] and in assay [4] were 7.53 µM (active) and 0.638 µM (active), respectively. Moreover, the IC50 was > 66.6 µM (inactive) in [5] and 4.08 µM (active) in assay [6].

What is called AC50 is the concentration at which the activity in the assay is half-maximal. For orientation: CC50 means the concentration that lowers cell viability or growth by half. On to `COc1cccc(/C=C2\SC(=S)N(CCCC(=O)N3CCCC3)C2=O)c1`, for which the results for the IC50 at Nonstructural protein 1 and in the assay on MDCK [9] were 66.8 µM (active) and 32.9 µM (active), respectively. Besides, the half-maximal activity concentration (AC50) in [7] was 71.1 µM (active). Further, the results for the half-maximal cytotoxic concentration (CC50) in the assay on Vero and with MDCK [8] were 12.8 µM (active) and > 40 µM (active), respectively. Moreover, the EC50 on Protein RecA was > 380 µM (inactive).

Consider `CC1CN(c2ccnc3cc(Cl)ccc23)CCN1C(=O)c1ccc(Cl)cc1` (stereo not drawn), for which the AC50 in the assay with Candida albicans [10] is 1.82 µM (active); in the assay on Candida albicans [11], 0.645 µM (active); with Candida albicans [12] it was 0.783 µM (active); in the assay on Candida albicans [13] it was 6.14 µM (active).

As for `COc1cc(C2CC(c3cccs3)=NN2C(=O)CCl)ccc1OC(F)F` (stereo not drawn), the EC50 in [14] was > 120 µM (not active); in the assay on BJ [15], 0.625 µM (active); in [16] it was 11 µM (active); in assay [17] it was 3.04 µM (active); in assay [18], 8.46 µM (active); with BJ [19], 2.56 µM (active). Also, the concentration giving a half-maximal response (EC50) in the assay with BJ [20] was 4.47 µM (inconclusive); in assay [21], 1.95 µM (active); in the assay on BJ [22] it was 0.608 µM (active); at Protein RecA it was 1.13 µM (active). In addition, the AC50 in assay [7] is 1.51 µM (active).
